Where two headings read alike, the source gives them in different places.
Key:
mouse model of diabetes = assay: Nephropathy in streptozotocin mouse model of diabetes (eNOS-/- mice), α7-nAchR blocker; assay type: in vivo; details: blocker 2 mg/kg i.p. 5 days a week, 10 weeks; for Systolic BP: tail-cuff
Protocol: Normal mice express the α7-nAChR in both the proximal and distal tubule of the kidneys. Tests were conducted to determine the role of the α7-nAchR on the severity of nephropathy in a mouse model of diabetes. Diabetes mellitus (DM) was induced in all mice with streptozotocin (STZ). This test closely mimics diabetic […] in humans. Mice were either given nicotine (DN) in doses of […] in drinking water or tap water with no nicotine for a period of 10 weeks (DT). Targeted disruption of the endothelial nitric oxide synthase gene led to eNOS^-/- knockout in a group of mice to increase susceptibility of STZ in the mice. One group of eNOS^-/- knockout mice was also subjected to targeted disruption of the α7-nAchR gene, which led to eNOS^-/-/α7-nAchR^-/- double knockout mice (DN^-/- and DT^-/-). A separate group of eNOS^-/- mice also received a α7-nAchR blocker (DN+B and DT+B). The blocker used was Compound 17 at a dosage of 2 mg/kg given intraperitoneally for 5 days a week for a period of 10 weeks. Blood pressure was measured by tail-cuff method and urine was collected every 2 weeks for albuminuria.
All mice became diabetic after being administered STZ, and all mice were also hypertensive.

α7 nAChR = α7 nAChR (Homo sapiens, UniProt P36544); assay: Binding at 10 μM to α7 nAChR (selectivity test)
Sequence of α7 nAChR (P36544 23-502): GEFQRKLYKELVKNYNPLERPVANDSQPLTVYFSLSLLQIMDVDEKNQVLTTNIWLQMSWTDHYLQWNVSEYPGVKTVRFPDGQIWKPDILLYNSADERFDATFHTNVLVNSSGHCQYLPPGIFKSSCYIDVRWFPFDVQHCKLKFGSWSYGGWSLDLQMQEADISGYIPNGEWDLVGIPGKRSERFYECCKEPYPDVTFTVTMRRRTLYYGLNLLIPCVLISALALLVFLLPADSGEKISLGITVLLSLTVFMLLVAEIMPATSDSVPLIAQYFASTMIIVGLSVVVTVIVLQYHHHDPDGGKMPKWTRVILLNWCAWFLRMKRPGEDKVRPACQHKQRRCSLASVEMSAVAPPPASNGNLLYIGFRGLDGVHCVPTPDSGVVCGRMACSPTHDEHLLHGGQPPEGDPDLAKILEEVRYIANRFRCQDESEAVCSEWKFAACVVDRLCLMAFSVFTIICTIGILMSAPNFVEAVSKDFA

neuronal α4β2 nAChR = neuronal α4β2 nAChR (Homo sapiens, UniProt P17787+P43681); assay: Binding at 10 μM to neuronal α4β2 nAChR (selectivity test)
Sequence of neuronal α4β2 nAChR (P43681 29-627 limits assumed): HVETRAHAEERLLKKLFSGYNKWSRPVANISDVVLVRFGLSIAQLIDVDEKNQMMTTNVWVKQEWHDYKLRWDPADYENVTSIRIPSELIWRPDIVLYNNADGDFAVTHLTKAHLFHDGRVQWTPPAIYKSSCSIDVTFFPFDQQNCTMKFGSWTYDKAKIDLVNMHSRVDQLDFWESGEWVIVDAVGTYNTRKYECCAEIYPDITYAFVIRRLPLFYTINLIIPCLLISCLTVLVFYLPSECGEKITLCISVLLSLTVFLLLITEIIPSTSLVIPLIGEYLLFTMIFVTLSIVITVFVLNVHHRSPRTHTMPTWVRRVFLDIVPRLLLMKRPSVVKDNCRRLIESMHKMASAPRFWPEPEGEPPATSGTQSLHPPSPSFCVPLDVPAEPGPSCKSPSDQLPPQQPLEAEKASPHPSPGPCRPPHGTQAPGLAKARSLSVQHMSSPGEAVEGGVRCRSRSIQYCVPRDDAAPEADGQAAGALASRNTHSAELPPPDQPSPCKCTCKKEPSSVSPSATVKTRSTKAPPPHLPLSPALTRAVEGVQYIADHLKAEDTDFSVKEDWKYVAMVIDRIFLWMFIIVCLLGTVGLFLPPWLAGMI
Sequence of neuronal α4β2 nAChR (P17787 26-502): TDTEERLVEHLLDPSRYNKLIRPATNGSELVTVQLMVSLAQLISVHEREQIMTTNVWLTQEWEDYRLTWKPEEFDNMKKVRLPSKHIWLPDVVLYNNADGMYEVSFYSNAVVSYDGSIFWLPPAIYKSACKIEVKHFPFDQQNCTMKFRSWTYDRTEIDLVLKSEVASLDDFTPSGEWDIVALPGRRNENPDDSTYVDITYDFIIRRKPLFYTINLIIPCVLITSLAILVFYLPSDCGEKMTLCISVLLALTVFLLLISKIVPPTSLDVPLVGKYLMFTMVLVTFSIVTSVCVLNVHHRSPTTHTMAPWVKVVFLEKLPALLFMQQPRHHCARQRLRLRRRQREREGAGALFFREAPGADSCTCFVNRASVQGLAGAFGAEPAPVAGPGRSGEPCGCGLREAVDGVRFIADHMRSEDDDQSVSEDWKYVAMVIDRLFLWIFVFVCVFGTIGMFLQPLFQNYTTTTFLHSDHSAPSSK
Protocol: (§1) The selectivity of these compounds is measured on the neuronal α4β2 and the muscle-type nAChRs using methods known in the art.

muscle-type nAChRs = assay: Binding at 10 μM to muscle-type nAChRs (selectivity test)
Protocol: as §1

[1] = Pharmacokinetic study, brain penetrability after oral administration; assay type: in vivo; details: mouse, male C57B1/6 mice, oral 10 mg/kg, t=2 h
Protocol: The pharmacokinetic (PK) study of compounds are performed in male C57B1/6 mice (n=3 per time point) after an oral administration at 10 mg/kg to evaluate the brain penetrability. The concentrations of representative Compound 16 in brain and plasma are 0.15 μM and 0.2 μM at time t=2 h, respectively. The tmax of Compound Q is probably longer than 2 h.

[2] = DN + B: diabetic eNOS-/- mice on nicotine
[3] = DT + B: diabetic eNOS-/- mice on tap water

| binding to the α7 receptor (α7 nAChR) [%] | binding to the neuronal α4β2 nAChR (neuronal α4β2 nAChR) | binding to muscle-type nAChRs (muscle-type nAChRs) | concentration at 2 h ([1]; brain, read-out: concentration in brain) [nM] | concentration at 2 h ([1]; plasma, read-out: concentration in plasma) [nM] | SMILES | Albuminuria (mouse model of diabetes; [2]) [ng/ml/24 hr] | Blood Glucose (mouse model of diabetes; [2]) [mg/dL] | Systolic BP (mouse model of diabetes; [2]) [mmHg] | Albuminuria (mouse model of diabetes; [3]) [ng/ml/24 hr] | Blood Glucose (mouse model of diabetes; [3]) [mg/dL] | Systolic BP (mouse model of diabetes; [3]) [mmHg] |
| --- | --- | --- | --- | --- | --- | --- | --- | --- | --- | --- | --- |
|  |  |  |  |  | NS(=O)(=O)c1ccc(Cn2ncc(C(=O)NCC3CCN(Cc4ccccc4)CC3)n2)cc1 [Compound 17] | 35 ± 6 | 441 ± 43 | 142 ± 13 | 50 ± 13 | 354 ± 51 | 150 ± 11 |
| 92 | no detectable binding | no detectable binding | 150 | 200 | CN(CC1CC[N+](C)(Cc2ccccc2)CC1)C(=O)c1cn(Cc2ccccc2Cl)nn1 (centres unmarked) [Compound 16] |  |  |  |  |  |  |

From patent publication US11491150B2, “Organic compounds” (INTRA-CELLULAR THERAPIES, INC., priority 2017, dated 2022)
